Results on four molecules are retold here after article PMC9385671 (Nature Communications, 2022).

Data set [1] is described as follows: Side-chain acidity: pKa by 1H NMR titration of free amino acids. Format: physicochemical. Particulars: for pKa: aqueous KH2PO4 solution titrated with sodium hydroxide; for pKa of the phenolic side-chain: experimental error ±0.15. The protocol:
10–20 mg of an amino acid, 50 mg of KH2PO4 was dissolved in 15 ml of water and titrated by sodium hydroxide solution to distinct pH values. 500 μl were taken to NMR tubes, 50 μl deuterium oxidewas added and ^1H NMR spectra were measured using W5 pulse tray water suppression at 500 MHz frequency. The chemical shifts were plotted against pH and analyzed using Henderson-Hasselbalch equation to deliver the pKa values. Experimental error ±0.15.

Data set [2] deals with T1, MjTyrRS variants (Methanocaldococcus jannaschii, UniProt Q57834, D158A/F108Q/H70G/L162N/L65E/Q109C/Y32G).
T1 construct: expressed in transfected cells
The experiment in a line: Intact cell fluorescence assay of HYs incorporation into SUMO-sfGFP. Format: cell-based. Particulars: for Fluorescence Instensity: Synthetase B48RS; for Incorporation efficiency (sfGFP fluorescence) versus control without HYs additions: mutant B48RS, 1 mM HY, E. coli DH10b. The protocol: (§1) The intact cell fluorescence assay was performed to approximately compare the Br2Y and Cl2Y incorporation efficiency of screened MjTyrRSs as well as to estimate their promiscuity against other Tyr analogues. Since the gene expression of SUMO-sfGFP was driven by T5 promoter on the one round positive selection plasmid, SUMO-sfGFP can be directly expressed in DH10b strain. […] Next day, an overnight culture was inoculated in a well at a ratio of 1:100 containing 300 μL TB medium supplemented with 50 μg/mL Kan,100 μg/mL Amp, 0.5 mM IPTG as well as 1 mM HYs while the corresponding control lacked the HYs. Cells were grown in 96 well plates (Ibidi) with orbital shaking (2 mm amplitude) for 24 h at 37 °C covered with a gas-permeable foil (Sigma Aldrich, Taufkirchen, Germany). […] After 24 h incubation, the optimal density and fluorescence was measured via top reading after the gas-permeable foil was removed. Each measurement was done in triplicate.

Data set [3] addresses T2, MjTyrRS variants (Methanocaldococcus jannaschii, UniProt Q57834, D158A/F108N/H70G/L162C/L65E/Y32V).
T2 construct: expressed in transfected cells
The data set is described as above. Format: cell-based. Particulars: Synthetase C64RS. The protocol: as §1

Data set [4] relates to MjTyrRS variants. Described as above. Format: cell-based, Methanocaldococcus jannaschii. The protocol:
as §1

The next data set deals with FtsZ-YFP-mts (Escherichia coli, UniProt P0A9A6). The arrangement: made in house; host or cells: E. coli BL21(DE3) for the wild type. Particulars: intensity line profile. The protocol: 1,2-dioleoyl-sn-glycero-3-phosphocholine (DOPC):1,2-dioleoyl-sn-glycero-3-phospho-(1’-rac-glycerol) (DOPG), 70:30 mol % mixture, was dissolved in chloroform in a quartz container, then dehumidified under a gas nitrogen stream. Chloroform traces were further removed through desiccation (1 h). Afterwards, the lipid film was hydrated to a final concentration of 4 mg/ml in supported lipid bilayers (SLB) buffer (50 mM Tris-HCl at pH 7.5, 150 mM KCl), and incubated at 37 °C for 30 min. The lipid film was then completely resuspended by vortexing rigorously to obtain multilamellar vesicles of different sizes. This mixture was then placed in a bath sonicator where shear forces help to reduce the size of the vesicles, giving rise to small unilamellar vesicles (SUVs). The SUV dispersion were stored at −20 °C as 20 µl aliquots.
Glass coverslips (1.5#, 24 x 24 mm) were cleaned by piranha solution overnight, followed by extensive washing with milliQ H2O. Then glass coverslips were blown dry with compressed air. The reaction chamber was prepared by attaching a plastic ring on a cleaned glass coverslip using ultraviolet glue (Thorlabs No. 68). For supported lipid bilayer formation, the SUV dispersion was diluted in SLB buffer to 0.5 mg/ml, of which 75 µl was added to the reaction chamber. Adding CaCl2 to a final concentration of 3 mM induced fusion of the vesicles and the formation of a lipid bilayer on coversilde. After 20 min of incubation at 37 °C, the sample was rinsed with 2 ml pre-warmed SLB buffer.
Polymerization was induced by adding 4 mM GTP.
The UltimateFocus feature of DeltaVision Elite maintains the focus plane constant in time. […] Fluorescence imaging was performed using a standard FITC filter set. Images were acquired with a PCO sCMOS 5.5 camera (PCO, Germany) controlled by the softWoRx Software (GE Healthcare Life Sciences, Germany). For time-lapse experiments, images were acquired every 3 s with a 0.05 s exposure time and light illumination shuttered between acquisitions.

[5] abbreviates: experimental error ±0.15, read-out: Ammonium pKa.
Where [6] appears, read: experimental error ±0.15, read-out: pKa of the phenolic side-chain.

A word on the pKa: it is the pH at which an ionisable group is half protonated.

“And” between values parts separate entries of the source, which are not always exact repeats. Equal values may be shown once. Read-outs that look alike come from different tables or passages of the source.

Sequence of FtsZ-YFP-mts (P0A9A6 1-366): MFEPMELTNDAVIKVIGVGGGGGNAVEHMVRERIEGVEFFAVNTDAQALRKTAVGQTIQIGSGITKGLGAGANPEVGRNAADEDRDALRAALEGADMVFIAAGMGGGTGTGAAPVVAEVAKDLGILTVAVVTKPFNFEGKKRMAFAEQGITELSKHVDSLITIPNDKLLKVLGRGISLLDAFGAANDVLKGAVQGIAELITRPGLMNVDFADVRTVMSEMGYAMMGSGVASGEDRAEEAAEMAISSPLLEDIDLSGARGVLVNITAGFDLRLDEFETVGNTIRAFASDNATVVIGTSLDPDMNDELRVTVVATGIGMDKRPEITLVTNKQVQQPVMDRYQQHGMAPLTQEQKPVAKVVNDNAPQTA
T1 sequence (Q57834 whole entry Y32G/L65E/H70G/F108Q/Q109C/D158A/L162N): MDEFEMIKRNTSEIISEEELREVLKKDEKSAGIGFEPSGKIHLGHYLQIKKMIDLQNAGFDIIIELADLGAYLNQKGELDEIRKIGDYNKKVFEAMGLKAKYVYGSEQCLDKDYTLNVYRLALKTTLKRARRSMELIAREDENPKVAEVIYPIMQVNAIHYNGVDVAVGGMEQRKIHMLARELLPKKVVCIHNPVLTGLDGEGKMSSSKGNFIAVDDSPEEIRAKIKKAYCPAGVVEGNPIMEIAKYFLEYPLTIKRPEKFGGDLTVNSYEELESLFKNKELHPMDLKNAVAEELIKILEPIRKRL
T2 sequence (Q57834 whole entry Y32V/L65E/H70G/F108N/D158A/L162C): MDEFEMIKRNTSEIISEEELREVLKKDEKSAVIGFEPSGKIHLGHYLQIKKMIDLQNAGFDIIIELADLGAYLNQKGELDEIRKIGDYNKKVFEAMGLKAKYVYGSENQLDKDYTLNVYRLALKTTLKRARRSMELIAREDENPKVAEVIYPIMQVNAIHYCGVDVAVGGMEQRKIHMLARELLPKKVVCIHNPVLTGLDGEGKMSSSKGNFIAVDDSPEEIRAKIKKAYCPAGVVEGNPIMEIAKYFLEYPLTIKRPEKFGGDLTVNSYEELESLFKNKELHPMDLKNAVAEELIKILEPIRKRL

`N[C@@H](Cc1cc(Cl)c(O)c(Cl)c1)C(=O)O` [Cl2Y, 3,5-dichloro-L-tyrosine]: the pKa in data set [1] (setting [5]) is 9.4; in data set [1] (setting [6]), 6.5. In data set [1], the “pKa of the phenolic side-chain” value is 6.52. The “Fluorescence Instensity” value was 0.5689 a.u. and 0.6362 a.u. and 0.4688 a.u on MjTyrRS variants [2]; 0.3285 a.u. and 0.3594 a.u. and 0.2924 a.u on MjTyrRS variants [3]; 0.07529 a.u. and 0.09709 a.u. and 0.05112 a.u in the data set on MjTyrRS variants [4] (Synthetase B4RS); 0.3851 a.u. and 0.4746 a.u. and 0.2926 a.u in the data set on MjTyrRS variants [4] (Synthetase B12RS); 0.3145 a.u. and 0.3721 a.u. and 0.2575 a.u with MjTyrRS variants [4] (Synthetase B37RS); 0.2554 a.u. and 0.3069 a.u. and 0.2029 a.u in the data set on MjTyrRS variants [4] (Synthetase B39RS). Further, the “Fluorescence Instensity” value is 0.7019 a.u. and 0.7995 a.u. and 0.5915 a.u with MjTyrRS variants [4] (Synthetase C5RS); 0.8209 a.u. and 0.9248 a.u. and 0.7159 a.u in the data set on MjTyrRS variants [4] (Synthetase C45RS); 0.5873 a.u. and 0.6501 a.u. and 0.5303 a.u in the data set with MjTyrRS variants [4] (Synthetase C61RS). Moreover, the “Incorporation efficiency (sfGFP fluorescence) versus control without HYs additions” value on MjTyrRS variants [2] is on record as “more than 100 fold”.

Turning to `N[C@@H](Cc1ccc(O)c(Br)c1)C(=O)O` [BrY, 3-bromo-L-tyrosine], the figures for the pKa in data set [1] (setting [5]) and in data set [1] (setting [6]) were 9.52 and 8.3, respectively. In data set [1], the “pKa of the phenolic side-chain” value is given as 8.29. Moreover, the “Fluorescence Instensity” value at MjTyrRS variants [2] was 0.5063 a.u. and 0.6051 a.u. and 0.4087 a.u; on MjTyrRS variants [3] it was 0.3329 a.u. and 0.3931 a.u. and 0.2701 a.u; with MjTyrRS variants [4] (Synthetase B4RS) it was 0.06278 a.u. and 0.07689 a.u. and 0.04597 a.u; in the data set on MjTyrRS variants [4] (Synthetase B12RS), 0.408 a.u. and 0.4614 a.u. and 0.3514 a.u; in the data set on MjTyrRS variants [4] (Synthetase B37RS) it was 0.2591 a.u. and 0.2929 a.u. and 0.2246 a.u; in the data set on MjTyrRS variants [4] (Synthetase C5RS), 0.7502 a.u. and 0.845 a.u. and 0.6301 a.u. Further, the “Fluorescence Instensity” value is 0.7918 a.u. and 0.9328 a.u. and 0.6597 a.u with MjTyrRS variants [4] (Synthetase C45RS); 0.2377 a.u. and 0.2625 a.u. and 0.2104 a.u in the data set on MjTyrRS variants [4] (Synthetase C61RS). In addition, the “Incorporation efficiency (sfGFP fluorescence) versus control without HYs additions” value at MjTyrRS variants [2] is recorded as “more than 100 fold”.

Turning to `N[C@@H](Cc1ccc(O)cc1)C(=O)O` [Y, tyrosine], the Gray value is reported as 0.2436 at FtsZ-YFP-mts (Distance(um) 5.15845); 0.2678 at FtsZ-YFP-mts (Distance(um) 5.17427); 0.2809 at FtsZ-YFP-mts (Distance(um) 5.1901); 0.2851 at FtsZ-YFP-mts (Distance(um) 5.20592); 0.3113 at FtsZ-YFP-mts (Distance(um) 5.22175); 0.3327 at FtsZ-YFP-mts (Distance(um) 5.23757). For the same molecule, the Gray value on FtsZ-YFP-mts (Distance(um) 5.25339) is 0.3531; at FtsZ-YFP-mts (Distance(um) 5.26922), 0.3835; at FtsZ-YFP-mts (Distance(um) 5.28504) it was 0.428; on FtsZ-YFP-mts (Distance(um) 5.30086), 0.443; at FtsZ-YFP-mts (Distance(um) 5.31669), 0.4411; at FtsZ-YFP-mts (Distance(um) 5.33251), 0.4633. Moreover, the Gray value came out at 0.4809 at FtsZ-YFP-mts (Distance(um) 5.34833); 0.4782 on FtsZ-YFP-mts (Distance(um) 5.36416); 0.498 at FtsZ-YFP-mts (Distance(um) 5.37998); 0.5435 at FtsZ-YFP-mts (Distance(um) 5.3958); 0.5554 on FtsZ-YFP-mts (Distance(um) 5.41163); 0.5565 at FtsZ-YFP-mts (Distance(um) 5.42745). The Gray value was determined as 0.5888 at FtsZ-YFP-mts (Distance(um) 5.44327); 0.6168 at FtsZ-YFP-mts (Distance(um) 5.4591); 0.6475 on FtsZ-YFP-mts (Distance(um) 5.47492); 0.6743 on FtsZ-YFP-mts (Distance(um) 5.49074); 0.698 at FtsZ-YFP-mts (Distance(um) 5.50657); 0.7626 at FtsZ-YFP-mts (Distance(um) 5.52239). For the same molecule, the Gray value at FtsZ-YFP-mts (Distance(um) 5.53821) came out at 0.7361; at FtsZ-YFP-mts (Distance(um) 5.55404), 0.7938; on FtsZ-YFP-mts (Distance(um) 5.56986) it was 0.8828; at FtsZ-YFP-mts (Distance(um) 5.58569), 0.899; at FtsZ-YFP-mts (Distance(um) 5.60151), 0.8493; on FtsZ-YFP-mts (Distance(um) 5.61733), 0.8767. Also, the Gray value at FtsZ-YFP-mts (Distance(um) 5.63316) came to 0.9446; on FtsZ-YFP-mts (Distance(um) 5.64898), 1; on FtsZ-YFP-mts (Distance(um) 5.6648), 0.9652; on FtsZ-YFP-mts (Distance(um) 5.68063) it was 0.9584; at FtsZ-YFP-mts (Distance(um) 5.69645) it was 0.9755; at FtsZ-YFP-mts (Distance(um) 5.71227), 0.9816. Further, the Gray value on FtsZ-YFP-mts (Distance(um) 5.7281) is given as 0.9099; on FtsZ-YFP-mts (Distance(um) 5.74392) it was 0.8492; on FtsZ-YFP-mts (Distance(um) 5.75974), 0.8638; on FtsZ-YFP-mts (Distance(um) 5.77557) it was 0.7917; on FtsZ-YFP-mts (Distance(um) 5.79139), 0.7498; on FtsZ-YFP-mts (Distance(um) 5.80721), 0.6513. Further, the “Fluorescence Instensity” value at MjTyrRS variants [2] is 0.00506 a.u. and 0.00513 a.u. and 0.00494 a.u; on MjTyrRS variants [3] it was 0.01243 a.u. and 0.01248 a.u. and 0.01236 a.u; in the data set with MjTyrRS variants [4] (Synthetase B4RS) it was 0.06037 a.u. and 0.07682 a.u. and 0.04915 a.u; in the data set on MjTyrRS variants [4] (Synthetase B37RS) it was 0.1466 a.u. and 0.1756 a.u. and 0.1118 a.u; in the data set on MjTyrRS variants [4] (Synthetase B39RS), 0.1833 a.u. and 0.2205 a.u. and 0.1319 a.u; with MjTyrRS variants [4] (Synthetase C5RS), 0.01571 a.u. and 0.01574 a.u. and 0.0156 a.u.

With `N[C@@H](Cc1ccc(O)c(Cl)c1)C(=O)O` [ClY, 3-chloro-L-tyrosine], the pKa in data set [1] (setting [5]) came to 9.5; in data set [1] (setting [6]), 8.3. Also, the “pKa of the phenolic side-chain” value in data set [1] is listed as 8.31. Also, the “Fluorescence Instensity” value at MjTyrRS variants [2] is 0.5472 a.u. and 0.654 a.u. and 0.4364 a.u; at MjTyrRS variants [3], 0.3514 a.u. and 0.3883 a.u. and 0.3147 a.u; in the data set with MjTyrRS variants [4] (Synthetase B12RS), 0.3856 a.u. and 0.4561 a.u. and 0.2986 a.u; in the data set with MjTyrRS variants [4] (Synthetase B37RS), 0.2734 a.u. and 0.2944 a.u. and 0.2525 a.u; with MjTyrRS variants [4] (Synthetase C5RS) it was 0.8727 a.u. and 1 a.u. and 0.7434 a.u; in the data set on MjTyrRS variants [4] (Synthetase C45RS), 0.8577 a.u. and 0.9724 a.u. and 0.7484 a.u. For the same molecule, the “Fluorescence Instensity” value in the data set with MjTyrRS variants [4] (Synthetase C61RS) was 0.5458 a.u. and 0.6071 a.u. and 0.5015 a.u.
